Measurements taken from patent US20220125900A1, “NEOANTIGENS IN CANCER” (priority 2019, published 2022).

Tested on: IFNγ response of splenocytes
Test: IFNγ ELISpot assay on splenocytes of vaccinated Balb/c mice
Type: in vivo
Conditions: splenocytes of mice vaccinated with Ancer-selected CT26 Neoantigen Peptides+Poly-ICLC, stimulated overnight; positive = >50 SFC/million over background and stimulation index >2-fold
Text: Balb/c mice were separated into three groups: A) Vehicle control; B) Ancer™-selected CT26 Neoantigen Peptides+adjuvant; C) Ancer™-selected CT26 Neoantigen Peptides+JANUSMATRIX™ MHC class II selected peptides+adjuvant. All vaccines were formulated with the addition of the adjuvant Poly-ICLC. Poly-ICLC, also known as Hiltonol, is a synthetic double-stranded RNA (dsRNA) agonist for pattern recognition receptors (PRRs), and TLR3 agonist. Groups A, B, and C received an initial vaccination with subsequent boosts of vaccine at 2- and 4-weeks post initial vaccination. All mice are sacrificed at 7-10 days after the final boost and spleens were harvested for splenocyte isolation and IFNγ ELISpot assay.
Group A: 50 ug Poly-ICLC in 200 uL
Group B: 20 Ancer™-selected CT26 Neoantigen Peptides at 5 ug/peptide, 100 ug total peptide, 50 ug Poly-ICLC, 200 uL […]
Isolated splenocytes were plated and stimulated with Ancer™-selected CT26 Neoantigen Peptides (CT26 pool), JANUSMATRIX™ selected peptides (CT26-Treg_pool), class I peptide pool, as well as individual Ancer™-selected CT26 Neoantigen peptide CT26-1 (CT26_peptide 1) and CT26-20 ([…]). Plates were incubated overnight and then read. […] Statistical significance was determined by Student's T-test; per mouse—antigen vs. no antigen stimulus, as well as group comparisons (p<0.05).

Substance: Ac-LQARLTSYETLK-NH2 [CT26-1]
- epitope-specific IFNγ response on recall stimulation (immunogenic): significant epitope-specific IFNγ response
